By melting point is commonly meant the temperature, or range, at which the solid turns liquid.

Regarding `CON=C1CCN2c3c(cccc31)C(=O)NC2c1ccc(OC)c(O)c1` (centres unmarked) [Example 55, 3-(3-hydroxy-4-methoxyphenyl)-7-methoxyimino-6,7-dihydro-3H,5H-pyrido[3,2,1-ij]quinazoline-1(2H)-one], the melting point is 185.3 to 189.8 °C.

With `COc1cc(C2NC(=O)c3cccc4c3N2CCC4=NO)cc(Br)c1OC` (centres unmarked) [Example 56, 3-(3-bromo-4,5-dimethoxyphenyl)-7-hydroxyimino-6,7-dihydro-3H,5H-pyrido[3,2,1-ij]quinazoline-1(2H)-one], the melting point lay within 133.9 to 146.8 °C.

Take `COc1ccc(C2NC(=O)c3cccc4c3N2CCC4=NO)cc1C` (centres unmarked) [Example 57, 7-hydroxyimino-3-(3-methyl-4-methoxyphenyl)-6,7-dihydro-3H,5H-pyrido[3,2,1-ij]quinazoline-1(2H)-one]: the melting point was in the range of 236 to 243.3 °C.

In the case of `CON=C1CCN2c3c(cccc31)C(=O)NC2c1ccc(-n2ccnc2)cc1` (centres unmarked) [Example 58, 3-[4-(imidazole-1-yl)phenyl]-7-methoxyimino-6,7-dihydro-3H,5H-pyrido[3,2,1-ij]quinazoline-1(2H)-one], the melting point is 246.3 °C (dec.).

`CCOC(=O)COc1ccc(C2NC(=O)c3cccc4c3N2CCC4=NO)cc1` (centres unmarked) [Example 59, 3-(4-ethoxycarbonylmethoxyphenyl)-7-hydroxyimino-6,7-dihydro-3H,5H-pyrido[3,2,1-ij]quinazoline-1(2H)-one] yielded a melting point of 198.6 to 203.3 °C.

For the molecule `O=C1NC(c2ccc(OCCO)cc2)N2CCC(=NO)c3cccc1c32` (centres unmarked) [Example 60, 7-hydroxyimino-3-(4-hydroxyethoxyphenyl)-6,7-dihydro-3H,5H-pyrido[3,2,1-ij]quinazoline-1(2H)-one], the melting point fell in the range of 183.9 to 186.3 °C.

Consider `COc1cc(C2NC(=O)c3cccc4c3N2CCC4=NO)ccc1O` (centres unmarked) [Example 61, 7-hydroxyimino-3-(4-hydroxy-3-methoxyphenyl)-6,7-dihydro-3H,5H-pyrido[3,2,1-ij]quinazoline-1(2H)one], for which the melting point lay within 174.4 to 189.3 °C.

Consider `CON=C1CCN2c3c(cccc31)C(=O)NC2c1ccc(C(F)(F)F)cc1` (centres unmarked) [Example 62, 7-methoxyimino-3-(4-trifluoromethylphenyl)-6,7-dihydro-3H,5H-pyrido[3,2,1-ij]quinazoline-1(2H)-one], for which the melting point was 199.4 to 207.2 °C.

The molecule `COc1cc(C2NC(=O)c3cccc4c3N2CCC4=NO)ccc1F` (centres unmarked) [Example 63, 3-(4-fluoro-3-methoxyphenyl)-7-hydroxyimino-6,7-dihydro-3H,5H-pyrido[3,2,1-ij]quinazoline-1(2H)-one] showed a melting point of 245.4 to 246.6 °C.

Take `CON=C1CCN2c3c(cccc31)C(=O)NC2c1ccc(OC(C)C)cc1` (centres unmarked) [Example 64, 3-(4-isopropoxyphenyl)-7-methoxyimino-6,7-dihydro-3H,5H-pyrido[3,2,1-ij]quinazoline-1(2H)-one]: the melting point was in the range of 167.4 to 168.9 °C.

In turn, `CON=C1CCN2c3c(cccc31)C(=O)NC2c1cccnc1` (centres unmarked) [Example 67, 7-methoxyimino-3-(3-pyridyl)-6,7-dihydro-3H,5H-pyrido[3,2,1-ij]quinazoline-1(2H)-one] registered a melting point of 178.6 to 185.9 °C.

With `CON=C1CCN2c3c(cccc31)C(=O)NC2Cc1ccc(OC)cc1` (centres unmarked) [Example 69, 7-methoxyimino-3-(4-methoxyphenyl)methyl-6,7-dihydro-3H,5H-pyrido[3,2,1-ij]quinazoline-1(2H)-one], the melting point was in the range of 190 to 195.9 °C.

Turning to `COc1ccc(C2NC(=O)c3cccc4c3N2CCC4=NO)cc1Cl` (centres unmarked) [Example 70, 3-(3-chloro-4-methoxyphenyl)-7-hydroxyimino-3-6,7-dihydro-3H,5H-pyrido[3,2,1-ij]quinazoline-1(2H)-one], the melting point is 220 °C (dec.).

`CON=C1CCN2c3c(cccc31)C(=O)NC2c1ccc([N+](=O)[O-])cc1` (centres unmarked) [Example 71, 7-methoxyimino-3-(4-nitrophenyl)-6,7-dihydro-3H,5H-pyrido[3,2,1-ij]quinazoline-1(2H)-one] came in with a melting point of 112.9 to 116.4 °C.
